Measured values published in ChEMBL document CHEMBL5678818, “Discovery of potent SOS1 inhibitors that block RAS activation via disruption of the RAS-SOS1 interaction” (Proc Natl Acad Sci U S A, 2019).

Assays:
[1] = target: Calcium/calmodulin-dependent protein kinase type 1B (Homo sapiens) (UniProt Q6P2M8); experiment: Inhibition of CAMK1B (unknown origin) assessed as residual activity at 1000 nM by KINOMEscan analysis relative to control
[2] = target: CDK4/Cyclin D3 (Homo sapiens) (UniProt P11802+P30281); experiment: Inhibition of CDK4-cyclin D3 (unknown origin) assessed as residual activity at 100 nM by KINOMEscan analysis relative to control; format: protein-complex assay
[3] = target: Cyclin-dependent kinase 7 (Homo sapiens) (UniProt P50613); experiment: Inhibition of CDK7 (unknown origin) assessed as residual activity at 100 nM by KINOMEscan analysis relative to control
[4] = target: T1, Ephrin type-B receptor 6 (Homo sapiens) (UniProt O15197); experiment: Inhibition of EPHB6 (unknown origin) assessed as residual activity at 100 nM by KINOMEscan analysis relative to control
T1 sequence (whole entry): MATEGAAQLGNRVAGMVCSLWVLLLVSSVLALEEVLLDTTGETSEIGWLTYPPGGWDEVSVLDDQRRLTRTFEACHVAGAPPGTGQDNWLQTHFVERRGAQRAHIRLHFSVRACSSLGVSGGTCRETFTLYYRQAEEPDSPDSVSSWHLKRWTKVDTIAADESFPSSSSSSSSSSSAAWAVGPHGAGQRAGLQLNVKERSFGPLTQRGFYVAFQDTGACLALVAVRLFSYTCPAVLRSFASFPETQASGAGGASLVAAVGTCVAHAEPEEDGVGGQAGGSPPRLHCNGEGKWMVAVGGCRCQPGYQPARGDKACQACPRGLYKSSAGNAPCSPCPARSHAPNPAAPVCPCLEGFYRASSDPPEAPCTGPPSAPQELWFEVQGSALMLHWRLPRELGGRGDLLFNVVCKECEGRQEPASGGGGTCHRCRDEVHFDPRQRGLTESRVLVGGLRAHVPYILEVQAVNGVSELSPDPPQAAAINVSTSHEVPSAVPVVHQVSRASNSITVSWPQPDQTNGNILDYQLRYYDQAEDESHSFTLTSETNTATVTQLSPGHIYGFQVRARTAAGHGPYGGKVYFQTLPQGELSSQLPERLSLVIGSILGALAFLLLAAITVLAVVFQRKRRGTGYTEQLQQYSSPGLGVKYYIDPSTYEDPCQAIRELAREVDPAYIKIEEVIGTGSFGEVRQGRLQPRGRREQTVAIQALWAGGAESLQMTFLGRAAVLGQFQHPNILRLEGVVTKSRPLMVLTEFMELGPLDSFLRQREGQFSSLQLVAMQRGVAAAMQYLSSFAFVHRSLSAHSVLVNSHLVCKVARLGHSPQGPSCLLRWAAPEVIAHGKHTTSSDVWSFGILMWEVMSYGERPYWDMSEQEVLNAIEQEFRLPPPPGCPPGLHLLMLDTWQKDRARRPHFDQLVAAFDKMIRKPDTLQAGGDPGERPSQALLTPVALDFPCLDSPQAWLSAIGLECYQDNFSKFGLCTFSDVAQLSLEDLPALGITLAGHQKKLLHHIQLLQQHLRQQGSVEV

[5] = target: Tyrosine-protein kinase HCK (Homo sapiens) (UniProt P08631); experiment: Inhibition of HCK (unknown origin) assessed as residual activity at 100 nM by KINOMEscan analysis relative to control
[6] = tested on: Mast/stem cell growth factor receptor Kit (Homo sapiens), P10721 [V559D]; experiment: Inhibition of KIT V559D mutant (unknown origin) assessed as residual activity at 100 nM by KINOMEscan analysis relative to control
[7] = target: T2, Mitogen-activated protein kinase kinase kinase 15 (Homo sapiens) (UniProt Q6ZN16); experiment: Inhibition of MAP3K15 (unknown origin) assessed as residual activity at 100 nM by KINOMEscan analysis relative to control
T2 sequence (whole entry): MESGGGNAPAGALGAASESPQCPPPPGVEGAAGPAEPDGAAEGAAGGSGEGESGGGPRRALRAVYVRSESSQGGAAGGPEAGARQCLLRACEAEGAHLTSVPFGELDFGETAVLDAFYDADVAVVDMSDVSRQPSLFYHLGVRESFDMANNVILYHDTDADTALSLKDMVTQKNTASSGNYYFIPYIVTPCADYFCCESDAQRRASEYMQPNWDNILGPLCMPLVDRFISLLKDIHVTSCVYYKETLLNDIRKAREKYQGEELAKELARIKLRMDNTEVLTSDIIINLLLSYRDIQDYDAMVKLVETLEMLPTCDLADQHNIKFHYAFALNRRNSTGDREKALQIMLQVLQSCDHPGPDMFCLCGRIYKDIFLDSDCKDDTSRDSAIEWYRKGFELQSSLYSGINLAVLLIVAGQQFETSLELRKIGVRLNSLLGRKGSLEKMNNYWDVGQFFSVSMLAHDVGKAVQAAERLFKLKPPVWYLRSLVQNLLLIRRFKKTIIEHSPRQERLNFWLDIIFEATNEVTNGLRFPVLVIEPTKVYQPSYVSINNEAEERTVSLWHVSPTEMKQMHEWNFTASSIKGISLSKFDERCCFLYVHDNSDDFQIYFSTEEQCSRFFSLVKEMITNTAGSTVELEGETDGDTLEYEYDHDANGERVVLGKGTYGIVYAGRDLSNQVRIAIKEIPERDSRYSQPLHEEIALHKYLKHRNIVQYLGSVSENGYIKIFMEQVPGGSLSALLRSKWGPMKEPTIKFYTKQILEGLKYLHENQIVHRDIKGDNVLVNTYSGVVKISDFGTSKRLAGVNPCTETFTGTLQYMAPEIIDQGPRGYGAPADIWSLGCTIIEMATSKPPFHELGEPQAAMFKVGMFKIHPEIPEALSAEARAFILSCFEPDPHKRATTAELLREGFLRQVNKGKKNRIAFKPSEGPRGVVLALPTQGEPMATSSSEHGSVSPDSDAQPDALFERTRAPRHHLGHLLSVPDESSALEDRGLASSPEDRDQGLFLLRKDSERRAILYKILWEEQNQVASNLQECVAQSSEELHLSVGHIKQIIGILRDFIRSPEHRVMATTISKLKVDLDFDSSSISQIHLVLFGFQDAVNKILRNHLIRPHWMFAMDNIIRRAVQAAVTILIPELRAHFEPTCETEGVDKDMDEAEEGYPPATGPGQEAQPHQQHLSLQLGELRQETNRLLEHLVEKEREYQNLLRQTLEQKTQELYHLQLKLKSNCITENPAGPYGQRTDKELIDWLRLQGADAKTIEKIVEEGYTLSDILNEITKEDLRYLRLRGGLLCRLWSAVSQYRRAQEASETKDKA

[8] = tested on: Hepatocyte growth factor receptor (Homo sapiens), P08581 [Y1235D]; experiment: Inhibition of MET Y1235D mutant (unknown origin) assessed as residual activity at 100 nM by KINOMEscan analysis relative to control
[9] = target: Myosin light chain kinase 2, skeletal/cardiac muscle (Homo sapiens) (UniProt Q9H1R3); experiment: Inhibition of MYLK2 (unknown origin) assessed as residual activity at 100 nM by KINOMEscan analysis relative to control
Chain of Myosin light chain kinase 2, skeletal/cardiac muscle (Homo sapiens) (Q9H1R3 whole entry): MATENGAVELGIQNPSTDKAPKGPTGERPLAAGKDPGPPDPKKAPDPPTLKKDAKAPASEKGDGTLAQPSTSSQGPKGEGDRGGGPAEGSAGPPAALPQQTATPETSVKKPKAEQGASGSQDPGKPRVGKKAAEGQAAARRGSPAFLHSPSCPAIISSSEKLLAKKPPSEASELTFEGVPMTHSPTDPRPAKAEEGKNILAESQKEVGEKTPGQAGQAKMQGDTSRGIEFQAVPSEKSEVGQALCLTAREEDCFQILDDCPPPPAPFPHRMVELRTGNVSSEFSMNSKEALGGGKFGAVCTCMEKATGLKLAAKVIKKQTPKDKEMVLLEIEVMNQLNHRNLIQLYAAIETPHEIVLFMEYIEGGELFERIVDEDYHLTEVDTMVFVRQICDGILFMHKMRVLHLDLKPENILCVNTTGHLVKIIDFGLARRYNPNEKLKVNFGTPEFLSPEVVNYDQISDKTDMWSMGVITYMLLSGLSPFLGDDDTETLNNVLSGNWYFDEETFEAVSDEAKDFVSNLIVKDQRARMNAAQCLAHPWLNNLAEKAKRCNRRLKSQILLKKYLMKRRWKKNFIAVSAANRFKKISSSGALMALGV

Chain of Tyrosine-protein kinase HCK (Homo sapiens) (P08631 2-526 limits assumed): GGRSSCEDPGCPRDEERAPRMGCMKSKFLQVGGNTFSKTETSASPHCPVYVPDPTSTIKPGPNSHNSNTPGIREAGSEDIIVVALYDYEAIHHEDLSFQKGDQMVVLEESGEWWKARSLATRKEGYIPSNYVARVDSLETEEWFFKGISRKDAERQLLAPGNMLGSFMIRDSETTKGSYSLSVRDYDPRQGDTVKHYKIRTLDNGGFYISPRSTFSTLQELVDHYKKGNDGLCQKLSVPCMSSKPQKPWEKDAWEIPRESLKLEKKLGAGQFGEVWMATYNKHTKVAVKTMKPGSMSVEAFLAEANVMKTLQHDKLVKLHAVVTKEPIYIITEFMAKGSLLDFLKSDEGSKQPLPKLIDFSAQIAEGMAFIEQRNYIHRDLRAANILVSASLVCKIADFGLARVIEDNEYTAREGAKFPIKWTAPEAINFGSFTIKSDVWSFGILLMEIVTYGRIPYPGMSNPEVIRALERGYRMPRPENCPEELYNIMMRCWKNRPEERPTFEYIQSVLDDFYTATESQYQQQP
Chain of Mast/stem cell growth factor receptor Kit (Homo sapiens), P10721 [V559D] (P10721 whole entry V559D): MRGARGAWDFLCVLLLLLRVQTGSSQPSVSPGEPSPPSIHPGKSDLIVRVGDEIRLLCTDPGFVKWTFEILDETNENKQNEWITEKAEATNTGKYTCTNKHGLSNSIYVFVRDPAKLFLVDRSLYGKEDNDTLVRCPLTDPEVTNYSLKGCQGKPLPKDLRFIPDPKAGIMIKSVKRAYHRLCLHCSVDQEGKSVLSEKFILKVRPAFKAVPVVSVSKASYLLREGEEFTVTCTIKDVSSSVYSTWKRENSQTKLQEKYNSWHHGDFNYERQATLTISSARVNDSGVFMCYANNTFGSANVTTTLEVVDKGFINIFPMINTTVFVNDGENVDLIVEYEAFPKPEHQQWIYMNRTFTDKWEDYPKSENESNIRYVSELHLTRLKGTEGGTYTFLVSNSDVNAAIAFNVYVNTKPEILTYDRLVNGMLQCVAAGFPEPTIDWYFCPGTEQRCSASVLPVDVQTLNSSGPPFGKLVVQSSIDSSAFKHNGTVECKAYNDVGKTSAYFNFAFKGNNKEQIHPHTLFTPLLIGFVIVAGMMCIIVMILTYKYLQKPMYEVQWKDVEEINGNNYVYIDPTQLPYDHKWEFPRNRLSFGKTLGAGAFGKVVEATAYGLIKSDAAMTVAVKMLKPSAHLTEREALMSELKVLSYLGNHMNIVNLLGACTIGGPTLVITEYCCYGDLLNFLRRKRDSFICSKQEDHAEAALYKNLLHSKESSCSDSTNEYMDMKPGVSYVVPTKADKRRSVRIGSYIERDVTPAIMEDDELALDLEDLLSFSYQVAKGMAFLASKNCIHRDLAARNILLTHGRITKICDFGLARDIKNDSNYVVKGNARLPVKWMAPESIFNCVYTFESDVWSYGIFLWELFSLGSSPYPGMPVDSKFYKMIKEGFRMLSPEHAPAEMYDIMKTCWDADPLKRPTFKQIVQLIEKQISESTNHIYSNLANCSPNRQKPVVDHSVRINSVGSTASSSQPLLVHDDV
Chain of Cyclin-dependent kinase 7 (Homo sapiens) (P50613 whole entry): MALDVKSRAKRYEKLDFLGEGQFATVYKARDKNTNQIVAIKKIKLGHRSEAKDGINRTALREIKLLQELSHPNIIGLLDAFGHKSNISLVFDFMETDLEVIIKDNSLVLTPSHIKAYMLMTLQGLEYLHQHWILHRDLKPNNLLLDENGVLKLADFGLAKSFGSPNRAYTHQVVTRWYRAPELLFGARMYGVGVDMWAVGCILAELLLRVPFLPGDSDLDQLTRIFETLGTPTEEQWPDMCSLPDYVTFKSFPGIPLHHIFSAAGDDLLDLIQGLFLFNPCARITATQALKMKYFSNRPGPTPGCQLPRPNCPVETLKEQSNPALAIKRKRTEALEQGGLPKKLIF
Chain of Calcium/calmodulin-dependent protein kinase type 1B (Homo sapiens) (Q6P2M8 whole entry): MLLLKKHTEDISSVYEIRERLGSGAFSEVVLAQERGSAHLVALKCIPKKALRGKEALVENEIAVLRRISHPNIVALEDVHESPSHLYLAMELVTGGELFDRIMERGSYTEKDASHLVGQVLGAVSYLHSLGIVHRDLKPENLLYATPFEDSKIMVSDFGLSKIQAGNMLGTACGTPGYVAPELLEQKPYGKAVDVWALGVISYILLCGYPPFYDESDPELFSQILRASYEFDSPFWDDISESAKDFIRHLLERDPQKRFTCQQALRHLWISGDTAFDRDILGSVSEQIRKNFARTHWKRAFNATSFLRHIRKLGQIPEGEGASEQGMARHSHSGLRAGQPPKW

SMILES | Activity [1] [%] | Activity [2] [%] | Activity [3] [%] | Activity [4] [%] | Activity [5] [%] | Activity [6] [%] | Activity [7] [%] | Activity [8] [%] | Activity [9] [%]
COc1cc2nc(C)nc(N[C@H](C)c3cccc(-c4cn[nH]c4)c3)c2cc1OC | 85 | – | – | – | – | – | – | – | –
COc1cc2ncnc(N[C@H](C)c3cccc4ccccc34)c2cc1OC | – | 100 | 88 | 77 | 88 | 100 | 86 | 83 | 90
